TGI data for 13 compounds are collected here from PubChem BioAssay (NCI).

Among the test systems are KM12 colon; HOP-62 NSCLC; SK-OV-3 ovarian; SN12C renal; CAKI-1 renal; ACHN renal; K-562 leukemia; MALME-3M melanoma; SW-620 colon; SK-MEL-2 melanoma; SK-MEL-28 melanoma; SNB-19 CNS; MOLT-4 leukemia; NCI-H460 lung; HCT-15 colon; M19-MEL melanoma; RXF 393 renal; RPMI-8226 leukemia; NCI/ADR-RES ovarian; MDA-MB-435.
What all share (assay): DTP human tumour cell line panel, 48 h

Molecules are shown by their SMILES.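 1) Cells in 96-well plates. 2) Compound, 48 h, 5 concentrations. 3) Linear interpolation between surrounding doses. 4) Unreached endpoint = highest concentration. TGI denotes the concentration required for complete inhibition of growth.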

For `[N-]=[N+]=NC1(Cc2ccccc2)C(=O)Nc2ccccc2C1=O` (stereo not drawn), the TGI with KM12 colon, in the assay with HOP-62 NSCLC, in the assay with SK-OV-3 ovarian, in the assay on SN12C renal, in the assay on CAKI-1 renal and with ACHN renal was more than 100 µM in each case. In addition, the TGI with K-562 leukemia, in the assay with MALME-3M melanoma, in the assay on SW-620 colon, with SK-MEL-2 melanoma, in the assay on SK-MEL-28 melanoma and in the assay on SNB-19 CNS was more than 100 µM in each case. Moreover, the TGI with MOLT-4 leukemia, in the assay with NCI-H460 lung, in the assay with HCT-15 colon and in the assay with M19-MEL melanoma was more than 100 µM throughout.
As to `Cc1cc(C(O)CCCc2ccccc2)cc(C)c1O` (stereo not drawn), the TGI (in general, the concentration at which net growth stops) was more than 100 µM in the assay with KM12 colon; more than 100 µM in the assay on HOP-62 NSCLC; more than 100 µM in the assay on SK-OV-3 ovarian; 60 µM in the assay with RXF 393 renal; more than 100 µM in the assay with SN12C renal; 92.3 µM in the assay on ACHN renal. The TGI was more than 100 µM in the assay with RPMI-8226 leukemia; more than 100 µM with K-562 leukemia; 64.3 µM with MALME-3M melanoma; more than 100 µM in the assay on SW-620 colon; 70.3 µM in the assay with SK-MEL-2 melanoma; more than 100 µM with SK-MEL-28 melanoma. Moreover, the TGI in the assay with SNB-19 CNS is 67.2 µM; in the assay on MOLT-4 leukemia, 73.8 µM; with NCI-H460 lung, more than 100 µM; in the assay on HCT-15 colon it was more than 100 µM; with M19-MEL melanoma, more than 100 µM.
Consider `CC(=O)c1ccc(NC(=O)C(=O)CC(=O)c2sc(-n3nc(-c4ccccc4)cc3-c3ccccc3)nc2C)cc1`, for which the TGI with KM12 colon, in the assay on HOP-62 NSCLC, with SK-OV-3 ovarian, in the assay on RXF 393 renal, in the assay on SN12C renal and with CAKI-1 renal was more than 100 µM throughout. For the same compound, the TGI in the assay on ACHN renal, in the assay with RPMI-8226 leukemia, in the assay with K-562 leukemia, in the assay on MALME-3M melanoma, in the assay with SW-620 colon and in the assay on SK-MEL-2 melanoma was more than 100 µM throughout. The TGI in the assay with SNB-19 CNS, in the assay on MOLT-4 leukemia, in the assay with NCI-H460 lung, in the assay with HCT-15 colon and in the assay with M19-MEL melanoma was more than 100 µM in each case.
For `Cc1cc(N(CCC#N)CCC#N)ccc1/C(Sc1ccccc1)=C(\NC(=O)/C=C/c1ccccc1)C(=O)Sc1ccccc1`, the TGI in the assay on KM12 colon is 15.3 µM; with HOP-62 NSCLC, 8.53 µM; in the assay on SK-OV-3 ovarian, 19.8 µM; in the assay on RXF 393 renal it was 4.5 µM; in the assay on SN12C renal, 7.29 µM; in the assay on CAKI-1 renal, 12.1 µM. Besides, the TGI in the assay with ACHN renal was 18.7 µM; with RPMI-8226 leukemia it was 6.07 µM; in the assay with K-562 leukemia it was more than 58.7 µM; in the assay on MALME-3M melanoma it was 25 µM; with SW-620 colon, 15.3 µM; in the assay with SK-MEL-2 melanoma, 16.6 µM. Moreover, the TGI in the assay on SK-MEL-28 melanoma was 18.5 µM; in the assay on SNB-19 CNS, 38.2 µM; in the assay with MOLT-4 leukemia, 8.27 µM; with NCI-H460 lung, 23.4 µM; in the assay with HCT-15 colon, 26.4 µM; in the assay on M19-MEL melanoma, 14.7 µM.
In the case of `Cc1c(N)c(C#N)c2n(C)c3ncccc3n2c1=O`, the TGI in the assay with KM12 colon, in the assay on HOP-62 NSCLC, in the assay with SK-OV-3 ovarian, in the assay with RXF 393 renal, with SN12C renal and in the assay on CAKI-1 renal was more than 100 µM throughout. In addition, the TGI in the assay with ACHN renal, in the assay with RPMI-8226 leukemia, with K-562 leukemia, in the assay with MALME-3M melanoma, with SW-620 colon and with SK-MEL-2 melanoma was more than 100 µM each time. Besides, the TGI in the assay with SK-MEL-28 melanoma, in the assay with SNB-19 CNS, in the assay with MOLT-4 leukemia, in the assay with NCI-H460 lung, with HCT-15 colon and in the assay on M19-MEL melanoma was more than 100 µM each time.
In the case of `CCCCN(CCCC)CC(C(=O)Nc1ccc([N+](=O)[O-])cc1[N+](=O)[O-])/C(C)=N\NC(=O)c1ccncc1` (stereo not drawn), the TGI in the assay on HOP-62 NSCLC, in the assay with SK-OV-3 ovarian, in the assay on RXF 393 renal, in the assay with SN12C renal, with CAKI-1 renal and in the assay with ACHN renal was more than 100 µM throughout. The TGI with RPMI-8226 leukemia, in the assay on K-562 leukemia, in the assay with MALME-3M melanoma, in the assay with SW-620 colon, with SK-MEL-2 melanoma and with SK-MEL-28 melanoma was more than 100 µM each time. Besides, the TGI in the assay with SNB-19 CNS, in the assay with MOLT-4 leukemia, with NCI-H460 lung, in the assay with HCT-15 colon and in the assay on M19-MEL melanoma was more than 100 µM throughout.
Consider `CCN(CC)CC(C(C)=O)C(c1ccccc1)c1c(O)c2ccccc2oc1=O` (stereo not drawn), for which the TGI in the assay with KM12 colon, in the assay on HOP-62 NSCLC, in the assay with SK-OV-3 ovarian, with RXF 393 renal, in the assay with SN12C renal and in the assay on CAKI-1 renal was more than 100 µM throughout. The TGI with ACHN renal, in the assay on RPMI-8226 leukemia, with K-562 leukemia, in the assay with MALME-3M melanoma, in the assay on SW-620 colon and in the assay on SK-MEL-2 melanoma was more than 100 µM in each case. Further, the TGI in the assay with SK-MEL-28 melanoma, in the assay on SNB-19 CNS, in the assay on MOLT-4 leukemia, with NCI-H460 lung, with HCT-15 colon and with M19-MEL melanoma was more than 100 µM each time.
On to `C=C(CN(C)C)C(=O)c1ccccc1`, for which the TGI in the assay with KM12 colon was 42.2 µM; in the assay with HOP-62 NSCLC it was more than 58.3 µM; with SK-OV-3 ovarian, 41 µM; with RXF 393 renal it was 6.47 µM; with SN12C renal, 38.7 µM; in the assay with CAKI-1 renal, 16.8 µM. Also, the TGI was 7.32 µM in the assay on ACHN renal; more than 66.3 µM in the assay with RPMI-8226 leukemia; 14.3 µM in the assay with K-562 leukemia; 11.1 µM with MALME-3M melanoma; 5.07 µM with SW-620 colon; 32.9 µM with SK-MEL-2 melanoma. Also, the TGI in the assay with NCI/ADR-RES ovarian is more than 100 µM; with SK-MEL-28 melanoma, 34.8 µM; in the assay with SNB-19 CNS, 53.1 µM; in the assay on MOLT-4 leukemia, 15.3 µM; with NCI-H460 lung, 37.5 µM; with HCT-15 colon, 28 µM. Besides, the total growth inhibition concentration (TGI) in the assay with MDA-MB-435 worked out at 27.3 µM; with M19-MEL melanoma, 22.9 µM.
As to `CCCN(CCCC(NC(C)=O)C(=O)NCc1ccccc1)C(=O)N(C)N=O` (stereo not drawn), the TGI in the assay on KM12 colon, with HOP-62 NSCLC, in the assay on SK-OV-3 ovarian, with RXF 393 renal, in the assay with SN12C renal and in the assay with CAKI-1 renal was more than 100 µM in each case. Further, the TGI with ACHN renal, in the assay on RPMI-8226 leukemia, in the assay on K-562 leukemia, in the assay with MALME-3M melanoma, with SW-620 colon and in the assay on SK-MEL-2 melanoma was more than 100 µM throughout. In addition, the TGI in the assay with SK-MEL-28 melanoma, in the assay with MOLT-4 leukemia, in the assay with NCI-H460 lung, in the assay on HCT-15 colon and with M19-MEL melanoma was more than 100 µM in each case.
As to `CC1=CP(=O)(OC(C)C)C=C(C)C1=C(Cl)Cl` (stereo not drawn), the TGI was 53.7 µM with KM12 colon; more than 100 µM in the assay on HOP-62 NSCLC; 33.4 µM in the assay with SK-OV-3 ovarian; more than 100 µM with RXF 393 renal; more than 100 µM in the assay on SN12C renal; more than 100 µM with ACHN renal. Besides, the TGI is more than 100 µM in the assay with RPMI-8226 leukemia; more than 100 µM with K-562 leukemia; more than 100 µM in the assay with MALME-3M melanoma; more than 100 µM in the assay on SW-620 colon; 59 µM in the assay with SK-MEL-2 melanoma; more than 100 µM in the assay with SK-MEL-28 melanoma. For the same compound, the TGI in the assay on SNB-19 CNS, in the assay with MOLT-4 leukemia, in the assay on NCI-H460 lung, in the assay on HCT-15 colon and in the assay with M19-MEL melanoma was more than 100 µM throughout.
Regarding `CN1CC=C(C#CC(C)(C)O)CC1`, the TGI with KM12 colon, in the assay on HOP-62 NSCLC, in the assay with SK-OV-3 ovarian, with RXF 393 renal, with SN12C renal and in the assay with CAKI-1 renal was more than 37.5 µM each time. Moreover, the TGI in the assay on ACHN renal, in the assay with RPMI-8226 leukemia, in the assay on K-562 leukemia, in the assay with MALME-3M melanoma, in the assay with SW-620 colon and in the assay with SK-MEL-2 melanoma was more than 37.5 µM throughout. Besides, the TGI in the assay with NCI/ADR-RES ovarian, in the assay with SK-MEL-28 melanoma, with SNB-19 CNS, in the assay with MOLT-4 leukemia, in the assay on NCI-H460 lung and in the assay on HCT-15 colon was more than 37.5 µM in each case. This compound had a TGI in the assay on MDA-MB-435 of more than 37.5 µM.
On to `CC12CCC(=O)N1[C@@H](c1ccccc1)[C@@H](c1ccccc1)O2` (stereo partly drawn), for which the TGI with KM12 colon, with HOP-62 NSCLC, in the assay on SK-OV-3 ovarian, with SN12C renal, in the assay with CAKI-1 renal and in the assay with ACHN renal was more than 100 µM in each case. Further, the TGI in the assay with K-562 leukemia, in the assay with MALME-3M melanoma, in the assay with SW-620 colon, in the assay with SK-MEL-2 melanoma, in the assay with SNB-19 CNS and in the assay with MOLT-4 leukemia was more than 100 µM each time. Besides, the total growth inhibition concentration (TGI) with NCI-H460 lung, in the assay with HCT-15 colon and in the assay on M19-MEL melanoma was more than 100 µM each time.
For the compound `OC(Cc1cnnc2ccccc12)C(Cl)(Cl)Cl` (stereo not drawn), the TGI in the assay on KM12 colon, in the assay with HOP-62 NSCLC, in the assay with SK-OV-3 ovarian, with RXF 393 renal, in the assay with SN12C renal and in the assay on CAKI-1 renal was more than 10 µM in each case. Further, the TGI in the assay on ACHN renal, with RPMI-8226 leukemia, in the assay on K-562 leukemia, in the assay on MALME-3M melanoma, with SW-620 colon and with SK-MEL-2 melanoma was more than 10 µM each time. The TGI with NCI/ADR-RES ovarian, with SK-MEL-28 melanoma, with SNB-19 CNS, with MOLT-4 leukemia, with NCI-H460 lung and in the assay with HCT-15 colon was more than 10 µM throughout. In the assay on MDA-MB-435, the concentration for total growth inhibition (TGI) is more than 10 µM.
